Test results published in patent publication US8957074B2 (Novartis AG, priority 2010, dated 2015).
Like-named read-outs stand apart in the source and are kept apart here.

What was measured:
[1] = tested on: phosphorylation of pRb at the Ser780 site in JeKo-1 mantle cell lymphoma cells; assay: CDK4 cellular assay: ELISA of pRb phosphorylation at Ser780 in JeKo-1 cells; format: cell-based
CDK4/cyclin D1 = CDK4/cyclin D1 (Homo sapiens (Human), UniProt P11802); assay: CDK4/cyclin D1 enzymatic activity assay (TR-FRET, phosphorylation of pRb at Ser780); format: biochemical
Summary of the method: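 Phosphorylation at pRb Ser780, detected by TR-FRET, gave IC50s and kinetics. Enzyme: baculovirus/Sf21-expressed human CDK4/cyclin D1. ATP at 3 μM initiated the reaction; EDTA (pH 8.0) stopped it after 60 min at 22° C.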

CDK1/cyclin B = CDK1/cyclin B (Homo sapiens (Human), UniProt P06493); assay: CDK1/cyclin B enzymatic activity assay (IMAP-FP); format: biochemical; details: […] CDK1/cyclin B, 100 nM Tamra Histone-H1 peptide, 20 μM ATP, 120 min at room temperature; read-out: Biochemical CDK1 enzyme IC50
Text: CDK1/Cyclin B Enzymatic Activity Assay
A 384-well microtiter IMAP-FP™ (Molecular Devices Trade Mark Technology) endpoint assay was used for CDK1/cyclin B kinase activity measurements. The same assay was used for IC50 determination of small molecule inhibitors.

[2] = Homo sapiens, JeKo-1 cells, p-pRb % inhibition adjusted with total pRb levels, read-out: Normalized cellular ppRb inhibition IC50
[3] = Homo sapiens, JeKo-1 cells, p-pRb Ser780 ELISA, non-normalized, read-out: Cellular ppRb inhibition IC50
[4] = 0.3 nM CDK4/cyclin D1, 150 nM biotin-pRb (773-924), 3 μM ATP, 60 min at 22° C., read-out: Biochemical CDK4 enzyme IC50
[5] = JeKo-1 cells, p-pRb % inhibition adjusted with total pRb levels, read-out: Normalized cellular ppRb inhibition IC50
[6] = JeKo-1 cells, p-pRb Ser780 ELISA, non-normalized, read-out: Cellular ppRb inhibition IC50
[7] = Homo sapiens, JeKo-1, JeKo-1 cells, p-pRb % inhibition adjusted with total pRb levels, read-out: Normalized cellular ppRb inhibition IC50
[8] = Homo sapiens, JeKo-1, JeKo-1 cells, p-pRb Ser780 ELISA, non-normalized, read-out: Cellular ppRb inhibition IC50

CDK1/cyclin B, sequence (P06493 whole entry, species assumed): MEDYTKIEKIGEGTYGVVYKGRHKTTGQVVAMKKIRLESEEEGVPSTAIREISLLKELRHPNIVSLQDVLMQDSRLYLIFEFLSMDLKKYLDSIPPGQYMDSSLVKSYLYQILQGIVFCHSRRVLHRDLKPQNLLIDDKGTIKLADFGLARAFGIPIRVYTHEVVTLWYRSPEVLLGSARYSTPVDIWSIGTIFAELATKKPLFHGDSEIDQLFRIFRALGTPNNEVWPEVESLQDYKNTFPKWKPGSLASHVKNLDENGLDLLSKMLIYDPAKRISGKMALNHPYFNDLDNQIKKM
CDK1/cyclin B, sequence (P14635 whole entry partner, species assumed): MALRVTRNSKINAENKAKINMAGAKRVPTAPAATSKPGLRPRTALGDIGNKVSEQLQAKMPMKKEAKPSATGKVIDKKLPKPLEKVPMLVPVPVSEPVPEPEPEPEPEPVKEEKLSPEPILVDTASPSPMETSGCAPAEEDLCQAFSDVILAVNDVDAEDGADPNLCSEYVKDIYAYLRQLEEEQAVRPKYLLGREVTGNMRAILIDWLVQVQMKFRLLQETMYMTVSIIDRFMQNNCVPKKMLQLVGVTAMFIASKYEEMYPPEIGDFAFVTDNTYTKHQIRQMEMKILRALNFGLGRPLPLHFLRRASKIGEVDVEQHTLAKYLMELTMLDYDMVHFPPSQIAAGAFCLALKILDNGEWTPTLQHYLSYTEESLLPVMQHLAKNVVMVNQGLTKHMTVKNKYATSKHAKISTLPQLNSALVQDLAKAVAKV
CDK4/cyclin D1, sequence (P11802 whole entry): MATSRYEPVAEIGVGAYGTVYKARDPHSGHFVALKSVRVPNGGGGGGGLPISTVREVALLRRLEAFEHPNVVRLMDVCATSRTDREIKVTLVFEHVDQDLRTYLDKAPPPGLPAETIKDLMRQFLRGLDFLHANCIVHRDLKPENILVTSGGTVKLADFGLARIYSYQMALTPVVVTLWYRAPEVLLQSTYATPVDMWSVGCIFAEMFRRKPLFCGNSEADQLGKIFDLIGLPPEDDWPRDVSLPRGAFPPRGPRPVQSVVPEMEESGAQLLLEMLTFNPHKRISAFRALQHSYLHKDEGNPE
CDK4/cyclin D1, sequence (P24385 whole entry partner): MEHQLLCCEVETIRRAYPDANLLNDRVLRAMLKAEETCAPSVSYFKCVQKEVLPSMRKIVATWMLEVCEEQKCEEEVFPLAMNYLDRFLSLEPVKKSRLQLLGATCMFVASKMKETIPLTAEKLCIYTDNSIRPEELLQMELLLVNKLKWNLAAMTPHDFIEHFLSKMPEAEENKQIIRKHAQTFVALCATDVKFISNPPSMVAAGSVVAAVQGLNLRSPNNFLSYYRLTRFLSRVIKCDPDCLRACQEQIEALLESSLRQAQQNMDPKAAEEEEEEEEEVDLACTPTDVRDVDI

SMILES	IC50 [1, 2]	IC50 [1, 3]	IC50 (CDK4/cyclin D1; [4])	IC50 (CDK1/cyclin B)	IC50 [1, 5]	IC50 [1, 6]	IC50 (CDK4/cyclin D1)	IC50 [1, 7]	IC50 [1, 8]
CN(C)C(=O)c1cc2cnc(Nc3ccc(N4CC5(CC4=O)CC4CCC(C5)N4)cn3)nc2n1C1CCCC1 (stereo not shown) [Example 118, 7-cyclopentyl-N,N-dimethyl-2-(5-(5′-oxo-8-azaspiro[bicyclo[3.2.1]octane-3,3′-pyrrolidine]-1′-yl)pyridin-2-ylamino)-7H-pyrrolo[2,3-d]pyrimidine-6-carboxamide]	47 to 153 nM	34 to 147 nM	5 to 14 nM	> 15000 nM					
CN(C)C(=O)c1cc2cnc(Nc3ccc(N4CC5(CCNCC5)OC4=O)cn3)nc2n1C1CCCC1 [Example 119, 7-cyclopentyl-N,N-dimethyl-2-(5-(2-oxo-1-oxa-3,8-diazaspiro[4.5]decan-3-yl)pyridin-2-ylamino)-7H-pyrrolo[2,3-d]pyrimidine-6-carboxamide]	72 to 83 nM	26 to 47 nM	12 nM	> 15000 nM					
CN(C)C(=O)c1cc2cnc(Nc3ccc(N4CC5(CC4=O)CC4CCC(C5)N4)cn3)nc2n1C1CCCOC1 (stereo not shown) [Example 120, N,N-dimethyl-2-(5-(5′-oxo-8-azaspiro[bicyclo[3.2.1]octane-3,3′-pyrrolidine]-1′-yl)pyridin-2-ylamino)-7-(tetrahydro-2H-pyran-3-yl)-7H-pyrrolo[2,3-d]pyrimidine-6-carboxamide]	1030 nM	677 nM	66 nM	> 15000 nM					
CN(C)C(=O)c1cc2cnc(Nc3ccc(N4CCC5(CCCN5)C4=O)cn3)nc2n1C1CCCOC1 (stereo not shown) [Example 121, N,N-dimethyl-2-(5-(6-oxo-1,7-diazaspiro[4.4]nonan-7-yl)pyridin-2-ylamino)-7-(tetrahydro-2H-pyran-3-yl)-7H-pyrrolo[2,3-d]pyrimidine-6-carboxamide]	199 to 791 nM	184 to 489 nM	79 to 107 nM	> 15000 nM					
CN(C)C(=O)c1cc2cnc(Nc3ccc(N4CC5CCC(CC4=O)N5)cn3)nc2n1C1CCCC1 (stereo not shown) [Example 122, 7-Cyclopentyl-2-[5-(4-oxo-3,9-diaza-bicyclo[4.2.1]non-3-yl)-pyridin-2-ylamino]-7H-pyrrolo[2,3-d]pyrimidine-6-carboxylic acid dimethylamide]				> 15000 nM	14 nM	9 nM	5 to 10 nM		
CN(C)C(=O)c1cc2cnc(Nc3ccc(N4C[C@H]5CC[C@@H](CC4=O)N5)cn3)nc2n1C1CCCC1 [Example 123, 7-Cyclopentyl-2-[5-((1R,6S)-4-oxo-3,9-diaza-bicyclo[4.2.1]non-3-yl)-pyridin-2-ylamino]-7H-pyrrolo[2,3-d]pyrimidine-6-carboxylic acid dimethylamide]			3 nM	29300 nM				8 to 99 nM	5 to 16 nM
CN(C)C(=O)c1cc2cnc(Nc3ccc(N4C[C@@H]5CC[C@H](CC4=O)N5)cn3)nc2n1C1CCCC1 [Example 124, 7-Cyclopentyl-2-[5-((1S,6R)-4-oxo-3,9-diaza-bicyclo[4.2.1]non-3-yl)-pyridin-2-ylamino]-7H-pyrrolo[2,3-d]pyrimidine-6-carboxylic acid dimethylamide]			23 nM	> 15000 nM	261 nM	158 nM			
CNC(=O)c1cc2cnc(Nc3ccc(N4C[C@H]5CC[C@@H](CC4=O)N5C)cn3)nc2n1C1CCCC1 [Example 125, 7-cyclopentyl-2-[5-((1R,6S)-9-methyl-4-oxo-3,9-diaza-bicyclo[4.2.1]non-3-yl)-pyridin-2-ylamino]-7H-pyrrolo[2,3-c]pyrimidine-6-carboxylic acid methylamide]	161 nM	83 nM	15 nM	> 15000 nM					
CN(C)C(=O)c1cc2cnc(Nc3ccc(N4CC5CCC(C4)N5)nn3)nc2n1C1CCCCC1 [Example 126, 7-Cyclohexyl-2-[6-(3,8-diaza-bicyclo[3.2.1]oct-3-yl)-pyridazin-3-ylamino]-7H-pyrrolo[2,3-d]pyrimidine-6-carboxylic acid dimethylamide]			10 to 31 nM	> 15000 nM				45 to 49 nM	23 to 32 nM
CN(C)C(=O)c1cc2cnc(Nc3ccc(N4CC5CCC(CC4=O)N5)cn3)nc2n1-c1ccccc1 (stereo not shown) [Example 128, 2-[5-(4-oxo-3,9-diaza-bicyclo[4.2.1]non-3-yl)-pyridin-2-ylamino]-7-phenyl-7H-pyrrolo[2,3-d]pyrimidine-6-carboxylic acid dimethylamide]			9 nM	> 15000 nM				140 nM	81 nM
CN(C)C(=O)c1cc2cnc(Nc3ccc(N4C[C@@H]5CC[C@H](CC4=O)N5)cn3)nc2n1-c1ccccc1 [Example 129, 2-[5-((1S,6R)-4-Oxo-3,9-diaza-bicyclo[4.2.1]non-3-yl)-pyridin-2-ylamino]-7-phenyl-7H-pyrrolo[2,3-d]pyrimidine-6-carboxylic acid dimethylamide]			48 nM	> 15000 nM				221 nM	194 nM
CN(C)C(=O)c1cc2cnc(Nc3ccc(N4C[C@H]5CC[C@@H](CC4=O)N5)cn3)nc2n1-c1ccccc1 [Example 130, 2-[5-((1R,6S)-4-oxo-3,9-diaza-bicyclo[4.2.1]non-3-yl)-pyridin-2-ylamino]-7-phenyl-7H-pyrrolo[2,3-d]pyrimidine-6-carboxylic acid dimethylamide]			9 nM	> 15000 nM				22 to 45 nM	19 to 26 nM
CN(C)C(=O)c1cc2cnc(Nc3ccc(N4CC5CCC(CC4=O)N5)cn3)nc2n1C1CCCCC1 (stereo not shown) [Example 131, 7-cyclohexyl-N,N-dimethyl-2-(5-(4-oxo-3,9-diazabicyclo[4.2.1]nonan-3-yl)pyridin-2-ylamino)-7H-pyrrolo[2,3-d]pyrimidine-6-carboxamide]			4 nM	> 15000 nM				24 nM	14 nM
CN(C)C(=O)c1cc2cnc(Nc3ccc(N4C[C@@H]5CC[C@H](CC4=O)N5)cn3)nc2n1C1CCCCC1 [Example 132, 7-Cyclohexyl-2-[5-((1S,6R)-4-oxo-3,9-diaza-bicyclo[4.2.1]non-3-yl)-pyridin-2-ylamino]-7H-pyrrolo[2,3-d]pyrimidine-6-carboxylic acid dimethylamide]			19 nM	> 15000 nM				28 to 47 nM	21 to 50 nM
CN(C)C(=O)c1cc2cnc(Nc3ccc(N4C[C@H]5CC[C@@H](CC4=O)N5)cn3)nc2n1C1CCCCC1 [Example 133, 7-Cyclohexyl-2-[5-((1R,6S)-4-oxo-3,9-diaza-bicyclo[4.2.1]non-3-yl)-pyridin-2-ylamino]-7H-pyrrolo[2,3-d]pyrimidine-6-carboxylic acid dimethylamide]			< 5 nM	13300 nM				7 nM	5 nM
CN(C)C(=O)c1cc2cnc(Nc3ccc(N4CC5CCC(CC4=O)N5)cn3)nc2n1C1CCC1 (stereo not shown) [Example 134, 7-Cyclobutyl-2-[5-(4-oxo-3,9-diaza-bicyclo[4.2.1]non-3-yl)-pyridin-2-ylamino]-7H-pyrrolo[2,3-d]pyrimidine-6-carboxylic acid dimethylamide]			8 nM	> 15000 nM				123 nM	66 nM
CN(C)C(=O)c1cc2cnc(Nc3ccc(N4C[C@@H]5CC[C@H](CC4=O)N5)cn3)nc2n1C1CCC1 [Example 135, 7-Cyclobutyl-2-[5-((1S,6R)-4-oxo-3,9-diaza-bicyclo[4.2.1]non-3-yl)-pyridin-2-ylamino]-7H-pyrrolo[2,3-d]pyrimidine-6-carboxylic acid dimethylamide]			7 nM	> 15000 nM				38 nM	19 nM
CN(C)C(=O)c1cc2cnc(Nc3ccc(N4C[C@H]5CC[C@@H](CC4=O)N5)cn3)nc2n1C1CCC1 [Example 136, 7-Cyclobutyl-2-[5-((1R,6S)-4-oxo-3,9-diaza-bicyclo[4.2.1]non-3-yl)-pyridin-2-ylamino]-7H-pyrrolo[2,3-d]pyrimidine-6-carboxylic acid dimethylamide]			54 nM	> 15000 nM				218 nM	77 nM
CN(C)C(=O)c1cc2cnc(Nc3ccc(N4C[C@@H]5CC[C@H](CC4=O)N5S(C)(=O)=O)cn3)nc2n1C1CCCC1 [Example 137, 7-cyclopentyl-N,N-dimethyl-2-(5-((1S,6R)-9-(methylsulfonyl)-4-oxo-3,9-diazabicyclo[4.2.1]nonan-3-yl)pyridin-2-ylamino)-7H-pyrrolo[2,3-d]pyrimidine-6-carboxamide]	150 nM	155 nM	62 nM	> 15000 nM					
CC(=O)NCC(=O)N1[C@@H]2CC[C@H]1CN(c1ccc(Nc3ncc4cc(C(=O)N(C)C)n(C5CCCC5)c4n3)nc1)C(=O)C2 [Example 138, 2-(5-((1S,6R)-9-(2-acetamidoacetyl)-4-oxo-3,9-diazabicyclo[4.2.1]nonan-3-yl)pyridin-2-ylamino)-7-cyclopentyl-N,N-dimethyl-7H-pyrrolo[2,3-d]pyrimidine-6-carboxamide]		1600 nM	106 nM	> 15000 nM					
